Assay results: PubChem BioAssay AID1963873 (Molecular Pharmacology Branch, DTP, NCI, 2024)

Test system: 276233-004-R-J1-PDC KRAS spheroids with HUVEC/MSC, viability
Assay: Anticancer human tumor 276233-004-R-J1-PDC patient-derived colon adenocarcinoma cell line growth inhibition [KRAS2]
Settings: for IC50: curve of first compound; for viability, T/C: stronger effect = lower value
From the text: Multicellular complex tumor spheroid response to RAS pathway inhibitors in combination with a targeted agents in patient-derived cell lines with oncogenic KRAS variants from multiple cancer types
A high-throughput screen of multi-cell type tumor spheroids was designed to identify active combinations of targeted small molecules and KRAS pathway inhibitors. Complex spheroids include a stromal component modeled by human endothelial cells (HUVEC) and fibroblasts modeled by human mesenchymal stem cells (MSCs). The concentration ranges selected for each drug and investigational agent were based upon clinically achievable concentrations if the clinical Cmax of the agent was known.
Compounds. The drugs and investigational agents: BI-3406 (NSC825286), BAY-293 (NSC824723), batoprotafib (TNO155; NSC825523), sotorasib (AMG 510; NSC818433), MRTX1257 (NSC819558), elimusertib (BAY 1895344; NSC800525), molibresib (GSK525762; NSC774829), temuterkib (LY3214996; NSC803410), venetoclax (NSC766270), alisertib (NSC759677), olaparib (NSC753686), talazoparib (NSC767125), erdafitinib (NSC781556), ipatasertib (NSC767898), cabozantinib (NSC761068), nintedanib (NSC756659), abemaciclib (NSC768073), docetaxel (NSC628503), trametinib (NSC758246), and sapanisertib (NSC764658) were obtained from the National Cancer Institute (NCI) Developmental Therapeutics Program Chemical Repository. The FDA-approved anticancer drug set is available from the Developmental Therapeutics Program. […] The stock solutions were prepared in dimethyl sulfoxide (DMSO, Sigma-Aldrich, St. Louis, MO, cat. D2650) at 800-fold the tested concentration and stored at -70 degrees C prior to their use. All drugs and investigational agents were tested over a range starting from a high concentration at or near the clinical Cmax and decreasing in half-log increments. If the clinical Cmax for an agent had not been determined, the highest concentration tested was 10 microM.
Cell Culture. All cells were maintained in an incubator at 37 degrees C and 5% CO2 with 95% humidity. The PDC lines were cultured according to standard operating procedures established by the NCI PDMR (https://pdmr.cancer.gov/sops/default.htm). Briefly, all PDCs were thawed and cultured in Matrigel-coated flasks prepared with a working solution of 1X Ham's F-12 nutrient mix, without supplementation (Invitrogen, Waltham, MA, cat. 11765054), 100 U/mL penicillin-streptomycin (Invitrogen, cat. 15140122), and 2.5% Matrigel (Corning Inc., Corning, NY, cat. 354248) for the first three passages. All PDCs were cultured in complete DMEM/F-12 media containing advanced DMEM/F-12 (Invitrogen, cat. 12634028), 4.9% defined fetal bovine serum, heat inactivated (HyClone Laboratories Inc., Logan, UT, cat. SH30070.03HI), 389 ng/mL hydrocortisone (Sigma-Aldrich, cat. H4001), 9.7 ng/mL human EGF recombinant protein (Invitrogen, cat. PHG0313), 23.4 microg/mL adenine (Sigma-Aldrich, cat. A2786), 97.3 U/mL penicillin-streptomycin (Invitrogen, cat. 15140122), 1.9 mM L-glutamine (Invitrogen, cat. 25030081), and 9.7 microM Y-27632 dihydrochloride (Tocris Bioscience, Bristol, United Kingdom, cat. 1254). The PDCs were cultured in complete DMEM/F12 media without 9.7 microM Y-27632 dihydrochloride for at least two passages prior to the screen. The established cell line HOP-62 was cultured in RPMI 1640 medium, HEPES (Invitrogen, cat. 22400105) with 10% defined fetal bovine serum (HyClone Laboratories Inc., cat. SH30070.03) and 2 mM L-glutamine (Invitrogen, cat. 25030081). The pooled donor HUVEC were cultured in endothelial cell growth medium 2 (PromoCell, Heidelberg, Germany, cat. C-22011) and the hMSC were cultured in mesenchymal stem cell growth medium 2 (PromoCell, cat. C-28009). For all experiments, HUVEC and hMSC were used at passages </=5, while the malignant cell lines were used at passages </=15. […]

[1] = second compound 0.1 µM, first compound 0.0316 µM
[2] = second compound 0.1 µM, first compound 0.1 µM
[3] = second compound 0.1 µM, first compound 0.316 µM
[4] = second compound 0.1 µM, first compound 1 µM
[5] = second compound 0.316 µM, first compound 0.0316 µM
[6] = second compound 0.316 µM, first compound 0.1 µM
[7] = second compound 0.316 µM, first compound 0.316 µM
[8] = second compound 0.316 µM, first compound 1 µM
[9] = second compound 1 µM, first compound 0.0316 µM
[10] = second compound 1 µM, first compound 0.1 µM
[11] = second compound 1 µM, first compound 0.316 µM
[12] = second compound 1 µM, first compound 1 µM
[13] = second compound 3.16 µM, first compound 0.0316 µM
[14] = second compound 3.16 µM, first compound 0.1 µM
[15] = second compound 3.16 µM, first compound 0.316 µM
[16] = second compound 3.16 µM, first compound 1 µM
[17] = second compound 10 µM, first compound 0.0316 µM
[18] = second compound 10 µM, first compound 0.1 µM
[19] = second compound 10 µM, first compound 0.316 µM
[20] = second compound 10 µM, first compound 1 µM
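Note: cells exposed to agents for seven days before viability read.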
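Throughout, for viability, T/C: 100% = DMSO vehicle control wells and lower values mean fewer viable cells.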

SMILES	IC50 (second compound 0.1 µM) [µM]	IC50 (second compound 0.316 µM) [µM]	IC50 (second compound 1 µM) [µM]	IC50 (second compound 3.16 µM) [µM]	IC50 (second compound 10 µM) [µM]	viability, T/C [1] [%]	viability, T/C [2] [%]	viability, T/C [3] [%]	viability, T/C [4] [%]	viability, T/C [5] [%]	viability, T/C [6] [%]	viability, T/C [7] [%]	viability, T/C [8] [%]	viability, T/C [9] [%]	viability, T/C [10] [%]	viability, T/C [11] [%]	viability, T/C [12] [%]	viability, T/C [13] [%]	viability, T/C [14] [%]	viability, T/C [15] [%]	other results
CCN1CCN(Cc2ccc(Nc3ncc(F)c(-c4cc(F)c5nc(C)n(C(C)C)c5c4)n3)nc2)CC1 + CC1OCC2(CCN(c3cnc(Sc4ccnc(N)c4Cl)c(N)n3)CC2)C1N	> 1	> 1	> 1	> 1	> 1	87	76.5	93.5	111	80.7	85.6	104	99.5	69.3	72.3	93.4	67	68.8	62.8	54.7	viability, T/C (second compound 0.1 µM, first compound 0.00316 µM): 89.9%; viability, T/C (second compound 0.1 µM, first compound 0.01 µM): 99.2%; viability, T/C (second compound 0.316 µM, first compound 0.00316 µM): 81.3%; viability, T/C (second compound 0.316 µM, first compound 0.01 µM): 89.6%; viability, T/C (second compound 1 µM, first compound 0.00316 µM): 83.7%; viability, T/C (second compound 1 µM, first compound 0.01 µM): 86%; viability, T/C (second compound 3.16 µM, first compound 0.00316 µM): 74.5%; viability, T/C (second compound 3.16 µM, first compound 0.01 µM): 66.5%; viability, T/C [16]: 70%; viability, T/C (second compound 10 µM, first compound 0.00316 µM): 51.2%; viability, T/C (second compound 10 µM, first compound 0.01 µM): 71%; viability, T/C [17]: 58.7%; viability, T/C [18]: 53.6%; viability, T/C [19]: 64.6%; viability, T/C [20]: 63%
COc1cc2nccc(Oc3ccc(NC(=O)C4(C(=O)Nc5ccc(F)cc5)CC4)cc3)c2cc1OC + C=CC(=O)N1CCN(c2nc(=O)n(-c3c(C)ccnc3C(C)C)c3nc(-c4c(O)cccc4F)c(F)cc23)C(C)C1	> 10	> 10	> 10	> 10	> 10	93.5	109	96	84.7	97.4	112	83.7	91.3	89.1	91.2	84.9	72.1	85.5	79.8	102	viability, T/C (second compound 0.1 µM, first compound 3.16 µM): 101%; viability, T/C (second compound 0.1 µM, first compound 10 µM): 104%; viability, T/C (second compound 0.316 µM, first compound 3.16 µM): 87.4%; viability, T/C (second compound 0.316 µM, first compound 10 µM): 76.3%; viability, T/C (second compound 1 µM, first compound 3.16 µM): 74.5%; viability, T/C (second compound 1 µM, first compound 10 µM): 75.1%; viability, T/C [16]: 76.7%; viability, T/C (second compound 3.16 µM, first compound 3.16 µM): 72.4%; viability, T/C (second compound 3.16 µM, first compound 10 µM): 114%; viability, T/C [17]: 82.3%; viability, T/C [18]: 74.9%; viability, T/C [19]: 69.1%; viability, T/C [20]: 81.8%; viability, T/C (second compound 10 µM, first compound 3.16 µM): 88.5%; viability, T/C (second compound 10 µM, first compound 10 µM): 76%
